Entries after “also recorded” stand apart in the source; their conditions may differ.
Tests used:
HEK293T cells = assay: MTT assay; assay type: cell-based, human; conditions: near millimolar concentrations (100 to 800 µM, 24 hours)
Excerpt: We next examined the orthogonal pairs for their ability to modulate lysine demethylation on the chromosomal histone in cultured human cells (Figure 4A). To this end, we generated the F185A mutation in full-length KDM4A carrying all of the functional domains. Furthermore, to enhance cell permeability, we synthesized two chemoselective ester prodrugs 6A and 6B carrying either an n-octyl or a trifluoromethyl benzyl ester as the lipophilic moiety, respectively (Figures 4A, S5, and S6, Scheme S3).[46],[47] We confirmed the cell permeability of 6A and 6B and their subsequent hydrolysis to 6 by analyzing extracts of compound-treated HEK293T cells using LC-HRMS. […]
12. Examining cell permeability and toxicity of 6A and 6B
In a T-25 cell culture flask, HEK293T cells were treated with either 200 µM L-Leu octyl-ester NOG 6A, L-Leu TFMB-ester NOG 6B, or corresponding volume of DMSO. Following 24 hours of incubation at 37 °C, media was removed and 3mL of 80:20 methanol: water was added while the flasks with cells were on dry ice. The flasks were then incubated in -80 °C for 10 minutes to allow cell lysis. […]
To assess the toxicity of 6A/B on HEK 293-T cells (ATCC CRL-1573) were counted, and 5,000 cells were plated into a 96 well cell culture plate (Corning) for n=5 of each treatment. […] Absorbance at 570nm was quantified via TECAN Infinite […]

[1] = biological target: T1, full-length KDM4A-F185A (asKDM4A) (Homo sapiens, UniProt O75164, F185A); assay: H3K9me3 Western blot of nuclear extracts of transfected HEK293T cells; assay type: cell-based; conditions: varying concentrations (25-200 µM)
T1 construct: we generated the F185A mutation in full-length KDM4A carrying all of the functional domains; host or cells: HEK293T
Procedure: HEK293T cells were transiently transfected with asKDM4A and treated with varying concentrations of 6A or 6B. […] To further confirm the activity of the enzyme–inhibitor pair, we performed tandem mass spectrometry of tryptic histones isolated from HEK293T cells expressing asKDM4A in the presence or absence of 100 μM 6A.
KDM4A mammalian expression plasmid in CMV vector was purchased from Addgene (plasmid #24180). KDM4B mammalian expression plasmid in CMV vector was purchased from Addgene (plasmid #24181). KDM4C mammalian expression plasmid in CMV vector was purchased from Addgene (plasmid #24214). KDM4D mammalian expression plasmid in pReciever vector was purchased from Genecopoia (EX-Z0917-M06.) KDME mammalian expression plasmid in pRP-EXP was designed from Vector Builder. The KDM4A-F185A, KDM4B-F186A, KDM4C -F187A, KDM4D-F189A, and KDM4E F186A mutants were generated using Quikchange Lightening Mutagenesis Kit (Agilent) according to manufacturer’s protocol and confirmed by Sanger […]
For the time dependent imaging, cells containing the transfected KDM4A mutant were identified by their HA signal. […] The mean signal was then measured for H3K9me3 or BrdU only within the cells expressing the KDM4A mutant. To compare changes in H3K9me3 or BrdU between trials, the quantification values were normalized to the mean signal at t=0. […]

T1 sequence (O75164 whole entry F185A, the tested form may be a part): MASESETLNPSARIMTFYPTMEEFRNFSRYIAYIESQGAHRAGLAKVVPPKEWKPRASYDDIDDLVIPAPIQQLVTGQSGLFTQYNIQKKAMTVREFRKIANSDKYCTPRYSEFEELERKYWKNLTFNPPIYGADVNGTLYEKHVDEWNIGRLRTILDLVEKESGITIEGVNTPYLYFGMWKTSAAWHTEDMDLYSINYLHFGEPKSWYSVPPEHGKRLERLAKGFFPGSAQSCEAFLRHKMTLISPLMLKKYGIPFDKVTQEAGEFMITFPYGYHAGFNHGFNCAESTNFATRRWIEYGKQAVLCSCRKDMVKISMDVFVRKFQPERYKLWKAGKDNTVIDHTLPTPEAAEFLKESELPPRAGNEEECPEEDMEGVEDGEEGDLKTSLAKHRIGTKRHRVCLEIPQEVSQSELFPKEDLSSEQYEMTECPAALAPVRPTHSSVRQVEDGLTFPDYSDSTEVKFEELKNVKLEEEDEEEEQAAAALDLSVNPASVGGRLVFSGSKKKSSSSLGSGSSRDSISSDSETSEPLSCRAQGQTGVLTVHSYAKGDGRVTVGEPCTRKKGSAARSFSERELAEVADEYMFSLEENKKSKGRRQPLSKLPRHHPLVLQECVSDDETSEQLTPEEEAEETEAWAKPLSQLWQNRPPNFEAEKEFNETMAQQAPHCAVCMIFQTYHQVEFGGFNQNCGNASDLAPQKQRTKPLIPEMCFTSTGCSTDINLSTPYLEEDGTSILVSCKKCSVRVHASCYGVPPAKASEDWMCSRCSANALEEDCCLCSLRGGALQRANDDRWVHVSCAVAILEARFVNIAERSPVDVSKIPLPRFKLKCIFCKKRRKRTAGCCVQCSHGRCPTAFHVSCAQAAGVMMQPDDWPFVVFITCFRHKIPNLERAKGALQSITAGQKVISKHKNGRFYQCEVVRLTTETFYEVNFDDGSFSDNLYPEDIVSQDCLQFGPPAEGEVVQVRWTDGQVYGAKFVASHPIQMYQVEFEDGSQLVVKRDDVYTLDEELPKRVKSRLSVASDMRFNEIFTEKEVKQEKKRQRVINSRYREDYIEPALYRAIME

Compound | cytotoxicity (HEK293T cells) | inhibition of asKDM4A (F185A) H3K9me3 demethylation [1]
CCCCCCCCOC(=O)C(=O)NC(CC(C)C)C(=O)O [6A, L-Leu octyl-ester NOG] | marginal cytotoxicity | Dose-dependent inhibition; also recorded: inhibited by both prodrugs in a dose-dependent manner
CC(C)CC(NC(=O)C(=O)OCc1cccc(C(F)(F)F)c1)C(=O)O [6B, L-Leu TFMB-ester NOG] | marginal cytotoxicity | Dose-dependent inhibition; also recorded: inhibited by both prodrugs in a dose-dependent manner

Source: article PMC11783601, “Analogue-Sensitive Inhibition of Histone Demethylases Uncovers Member-Specific Function in Ribosomal Protein Synthesis” (Journal of the American Chemical Society, 2025)
